# According to ChEMBL document CHEMBL1142574, “Identification of radical scavenging compounds in Rhaponticum carthamoides by means of LC-DAD-SPE-NMR” (J Nat Prod, 2005):
# Key:
# [1] = test system: Radical scavenging activity; assay: Antioxidant activity assessed as DPPH radical scavenging activity studied at DPPH to compound ratio of 5; assay type: functional; conditions: dose or concentration not given here
# [2] = test system: Radical scavenging activity; assay: Antioxidant activity assessed as DPPH radical scavenging activity studied at DPPH to compound ratio of 2; assay type: functional; conditions: dose or concentration not given here
SMILES,inhibition [1] [%],inhibition [2] [%]
Cc1c(C)c2c(c(C)c1O)CCC(C)(C(=O)O)O2 (stereo unspecified),79,98
O=C(/C=C/c1ccc(O)c(O)c1)O[C@H](Cc1ccc(O)c(O)c1)C(=O)O,89,98
CC(=O)OC[C@H]1O[C@@H](Oc2cc3oc(-c4ccc(O)cc4)c(O)c(=O)c3c(O)c2O)[C@H](O)[C@@H](O)[C@@H]1O,36,75
